Data on two compounds can be found in US6713493B2, “Use of nicergoline in the treatment of spasticity” (Aventis Pharma S.A., priority 1998, dated 2004).

The subject of test [1] is spasticity in amyotrophic lateral sclerosis. The note with it: riluzole sold as Rilutek for ALS; cited from earlier work.
The test system of test [2] is stiffness (spasticity) in patients suffering from ALS. The test can be described thus: Descriptive study on 9 ALS patients: stiffness self-assessed on a 100 mm visual analog scale (VAS) before and after nicergoline. Type of test: in vivo, human (patients). As for the experimental part:
A descriptive study on 9 patients suffering from ALS was carried out. The main criterion defined is the stiffness, measured using a visual analog scale (VAS), of 100 mm, or the individual rates by self-assessment the severity of the stiffness perceived. The patients receive 100 mg/day of riluzole and 15 mg IV of nicergoline on the first day and 30 mg IV on the next 4 days. The duration of infusion was more than 4 hours to avoid any risk of hypotension. The measurement was carried out before and after administration of nicergoline.

On to `Nc1nc2ccc(OC(F)(F)F)cc2s1` [Riluzole, 2-amino-6-trifluoro-methoxybenzothiazole], for which, in test [1], the “Effect on spasticity (in words)” value is reported as “no effect on the spasticity”.

On to `CO[C@]12C[C@@H](COC(=O)c3cncc(Br)c3)CN(C)[C@@H]1Cc1cn(C)c3cccc2c13` [nicergoline, (8β)-10-methoxy-1,6-dimethylergoline-8-methanol-5-bromonicotinate], for which the “Stiffness (VAS, 100 mm) after administration of nicergoline, mean±standard deviation” value in test [2] (9 ALS patients on riluzole 100 mg/day, nicergoline 15 mg IV day 1, 30 mg IV next 4 days, measured 4 days later (from 4 to 8 d), stiffness before administration 67.33±25) amounted to 48.11±19 mm. Further, the “Intra-individual difference in stiffness (VAS) before vs after nicergoline, mean±standard deviation” value in test [2] (9 ALS patients, same regimen, range −8 to +57, comparison at zero difference significant (t=2.809, p (2α)=0.0229)) is given as 19.22±20.5 mm. The “Effect on pyramidal spasticity of neurological diseases involving an attack of the pyramidal pathway (in words)” value in test [2] (in particular spasticity during ALS) is “reduces the pyramidal spasticity”.
